Laboratory results taken from ChEMBL document CHEMBL1201862, “PubChem BioAssay data set” (2004).
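Protocol summary: plate cells (96-well), add compound at 5 concentrations, incubate 48 h, interpolate endpoints linearly. Here, GI50 denotes the concentration required for 50% inhibition of growth.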 Active and inactive are the calls of the source. Cut-off read from the data, not from the text of the source: active = GI50 up to about 1.1 µM and inactive = higher.

Assays:
Assay in all cases: growth of human tumour cells (NCI), 48 h
HOP-92 = tested on: HOP-92
HT-29 = tested on: HT-29
NCI-H522 = tested on: NCI-H522
SNB-78 = tested on: SNB-78
SK-MEL-28 = tested on: SK-MEL-28
LXFL 529 = tested on: LXFL 529
RPMI-8226 = tested on: RPMI-8226
CCRF-CEM = tested on: CCRF-CEM
UACC-62 = tested on: UACC-62
LOX IMVI = tested on: LOX IMVI
ACHN = tested on: ACHN
UO-31 = tested on: UO-31
OVCAR-4 = tested on: OVCAR-4
CAKI-1 = tested on: CAKI-1
SF-268 = tested on: SF-268
DLD-1 = tested on: DLD-1
UACC-257 = tested on: UACC-257
DMS-114 = tested on: DMS-114
KM-20L2 = tested on: KM-20L2
SK-MEL-2 = tested on: SK-MEL-2
SF-539 = tested on: SF-539
TK-10 = tested on: TK-10
HCT-116 = tested on: HCT-116
Malme-3M = tested on: Malme-3M
MOLT-4 = tested on: MOLT-4
RXF 393 = tested on: RXF 393
COLO 205 = tested on: COLO 205
HL-60 = tested on: HL-60
HOP-18 = tested on: HOP-18
M14 = tested on: M14
NCI-H226 = tested on: NCI-H226
EKVX = tested on: EKVX
XF498 = tested on: XF498
SNB-75 = tested on: SNB-75
SR = tested on: SR
SN12C = tested on: SN12C
OVCAR-3 = tested on: OVCAR-3
OVCAR-5 = tested on: OVCAR-5
SK-OV-3 = tested on: SK-OV-3
OVCAR-8 = tested on: OVCAR-8
M19-MEL = tested on: M19-MEL
786-0 = tested on: 786-0
SW-620 = tested on: SW-620
K562 = tested on: K562
A549 = tested on: A549
KM12 = tested on: KM12
NCI-H23 = tested on: NCI-H23
DMS-273 = tested on: DMS-273
SK-MEL-5 = tested on: SK-MEL-5
NCI-H460 = tested on: NCI-H460
SNB-19 = tested on: SNB-19
IGROV-1 = tested on: IGROV-1
A498 = tested on: A498
SF-295 = tested on: SF-295
HCT-15 = tested on: HCT-15
U-251 = tested on: U-251
HCC 2998 = tested on: HCC 2998

Measured: GI50

Oc1ccccc1-c1cnnc(-c2ccccc2O)c1
inactive: HOP-92 24 µM | HT-29 26.5 µM | NCI-H522 17.7 µM | SNB-78 33.3 µM | SK-MEL-28 35.6 µM | LXFL 529 21.5 µM | RPMI-8226 16.7 µM | CCRF-CEM 13.4 µM | UACC-62 17.5 µM | LOX IMVI 20.3 µM | ACHN 27.7 µM | UO-31 19.7 µM | OVCAR-4 29.9 µM | CAKI-1 28.6 µM | SF-268 38.2 µM | DLD-1 30.6 µM | UACC-257 25.1 µM | DMS-114 15 µM | KM-20L2 43.5 µM | SK-MEL-2 20.5 µM | SF-539 33.9 µM | TK-10 28.7 µM | HCT-116 20.1 µM | Malme-3M 33.6 µM | MOLT-4 18.1 µM | RXF 393 20.3 µM | COLO 205 22 µM | HL-60 19.8 µM | HOP-18 22.1 µM | M14 22.2 µM | NCI-H226 42 µM | EKVX 24.1 µM | XF498 16.2 µM | SNB-75 20.4 µM | SR 19 µM | SN12C 30.3 µM | OVCAR-3 19 µM | OVCAR-5 28.6 µM | SK-OV-3 43.5 µM | OVCAR-8 22.6 µM | M19-MEL 27.4 µM | 786-0 17.9 µM | SW-620 37.7 µM | K562 7.73 µM

O=C1OC(c2ccc(Cl)cc2)(c2ccc(Cl)cc2)c2c1ccc1ccccc21
inactive: HT-29 > 100 µM | NCI-H522 44.4 µM | SNB-78 > 100 µM | SK-MEL-28 > 100 µM | LXFL 529 > 100 µM | RPMI-8226 5.94 µM | A549 > 100 µM | CCRF-CEM > 100 µM | UACC-62 > 100 µM | LOX IMVI > 100 µM | ACHN > 100 µM | UO-31 92.3 µM | KM12 > 100 µM | OVCAR-4 > 100 µM | CAKI-1 > 100 µM | NCI-H23 8.67 µM | SF-268 > 100 µM | DLD-1 > 100 µM | DMS-273 > 100 µM | UACC-257 > 100 µM | SK-MEL-5 52.5 µM | KM-20L2 > 100 µM | SK-MEL-2 > 100 µM | TK-10 > 100 µM | Malme-3M > 100 µM | MOLT-4 39.4 µM | NCI-H460 > 100 µM | RXF 393 20.9 µM | SNB-19 > 100 µM | COLO 205 > 100 µM | HL-60 8.69 µM | IGROV-1 > 100 µM | HOP-18 > 100 µM | NCI-H226 71.4 µM | EKVX > 100 µM | XF498 > 100 µM | A498 > 100 µM | SNB-75 36.7 µM | SN12C > 100 µM | SF-295 > 100 µM | OVCAR-3 > 100 µM | OVCAR-5 > 100 µM | SK-OV-3 > 100 µM | U-251 > 100 µM | OVCAR-8 > 100 µM | M19-MEL > 100 µM | HCC 2998 > 100 µM | SW-620 > 100 µM | K562 54.5 µM
> 100 µM: HCT-15
